For assay [1], the target named is protein-protein interaction between Kras and SOS1 (biotin-tagged human Kras loaded with GDP, His-tagged human SOS1) (Homo sapiens (Human), UniProt P01116, G12D). In words: Protein-protein interaction inhibition between Kras and SOS1 (KrasG12D-SOS PPI) using AlphaScreen.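 Also: kras produced in E. coli, Ni-coupled donor beads and streptavidin acceptor beads, excitation 680 nm with emission detected at 520–620 nm via singlet oxygen transfer.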 As to conditions: AlphaScreen; biotin-tagged human Kras loaded with GDP, His-tagged human SOS1; read-out: KRAS G12D-SOS PPI IC50. In kind it is biochemical.

Assay [2] relates to Human pancreatic cancer cell line AsPC-1 (G12D mutation Kras). In words: AsPC-1 cell growth inhibition (AsPC-1 CGI). The assay is classed as cell-based. Conditions: read-out: AsPC-1 cell growth inhibition, 50% growth inhibitory concentration (IC50 value); 96 hours, CellTiter-Glo, values classified in ranges.
Experimental: Test compounds were serially dilated with dimethyl sulfoxide, and 200 nL was then dispensed to a U-bottom 96-well plate using Labcyte Echo. […] The cell suspension was dispensed to a. plate containing a test compound at 100 μL per well and incubated at 37° C. in a 5% carbon dioxide gas incubator. 96 hours later, 80 μL of CellTiter-Glo (Promega) was added to each well and fluorescence was measured.

Numbered stars: 1 amine (or outer) side, 2 acyl side, 3 side chain; on linkers, the order of the positions; unused ones are H or OH. Bridge positions count the residues as written; N and C are the ends. Square brackets hold non-standard residues; d marks the D form. Peptide text beside a SMILES is read from it. * marks the point of attachment. hPhe(3,5-F2-4-CF3) = N[C@@H](CCc1cc(F)c(C(F)(F)F)c(F)c1)C(=O)O; hPhe(3-Cl-4-CF3) = N[C@@H](CCc1ccc(C(F)(F)F)c(Cl)c1)C(=O)O; hPhe(3-F,4-CF3) = N[C@@H](CCc1ccc(C(F)(F)F)c(F)c1)C(=O)O; NEtPhe(4-CF3) = CCN[C@@H](Cc1ccc(C(F)(F)F)cc1)C(=O)O; NMePhe(4-CF3) = CN[C@@H](Cc1ccc(C(F)(F)F)cc1)C(=O)O; X16 = CS(=O)(=O)c1ccc(CC[C@H](N[*:1])C(=O)[*:2])cc1; NMePhe(4-Me) = CN[C@@H](Cc1ccc(C)cc1)C(=O)O; NMePhe(2-Cl) = CN[C@@H](Cc1ccccc1Cl)C(=O)O; NMedβ3hAla = C[C@H](CC(=O)[*:2])N(C)[*:1]; NMeAla(cPent) = CN[C@@H](CC1CCCC1)C(=O)O; NMeGly(cPent) = CN[C@H](C(=O)O)C1CCCC1; NMeCha = CN[C@@H](CC1CCCCC1)C(=O)O; Hyp = O=C(O)[C@@H]1C[C@@H](O)CN1; NMeChg = CN[C@H](C(=O)O)C1CCCCC1; NMeI = CC[C@H](C)[C@H](NC)C(=O)O; NMeD = CN[C@@H](CC(=O)O)C(=O)O; NMeL = CN[C@@H](CC(C)C)C(=O)O; NMeV = CN[C@H](C(=O)O)C(C)C; d(β3hA) = C[C@@H](N)CC(=O)O; NMeC = CN[C@@H](CS)C(=O)O; dNMeS = CN[C@H](CO)C(=O)O; Morpholide = C1CN(*)CCO1; NMeA = CN[C@@H](C)C(=O)O; Piperidide = C1CCN(*)CC1; Pyrrolidide = C1CCN(*)C1; Ac5c = NC1(C(=O)O)CCCC1; Aze = O=C(O)[C@@H]1CCN1; NEtG = CCNCC(=O)O; Sar = CNCC(=O)O

As to `CC[C@H](C)[C@@H]1NC(=O)[C@H](CC(C)C)N(C)C(=O)C[C@@H](C(=O)N2CCCCC2)N(C)C(=O)[C@H](C2CCCCC2)N(C)C(=O)C2(CCCC2)NC(=O)[C@@H](CO)N(C)C(=O)[C@H](CCc2ccc(C(F)(F)F)c(Cl)c2)NC(=O)CN(C)C(=O)[C@H](CC2CCCCC2)N(C)C(=O)CN(C)C(=O)CN(C)C1=O` [Compound 1448] ([NMeL]I[Sar][Sar][NMeCha][Sar][hPhe(3-Cl-4-CF3)][dNMeS][Ac5c][NMeChg][NMeD]-Piperidide; lactam N-11), the IC50 was 1.1 nM in assay [1] and above 500 nM in assay [2].
For the molecule `CC[C@H](C)[C@@H]1NC(=O)[C@H](CC(C)C)N(C)C(=O)C[C@@H](C(=O)N(C)C)N(C)C(=O)[C@H]([C@@H](C)CC)N(C)C(=O)C2(CCCC2)NC(=O)[C@@H]2CCCN2C(=O)[C@H](CCc2ccc(C(F)(F)F)c(F)c2)NC(=O)CN(C)C(=O)[C@H](Cc2ccc(C)cc2)N(C)C(=O)[C@@H]2CCN2C(=O)[C@H](C)N(C)C1=O` [Compound 1017] ([NMeL]I[NMeA][Aze][NMePhe(4-Me)][Sar][hPhe(3-F,4-CF3)]P[Ac5c][NMeI][NMeD]-NMe2; lactam N-11), the IC50 in assay [1] is 0.88 nM; in assay [2], at most 20 nM.
The matching figures for `CCO[C@@H]1C[C@H]2C(=O)NC3(CCCC3)C(=O)N(C)[C@@H]([C@@H](C)CC)C(=O)N(C)[C@H](C)CC(=O)N(C)[C@@H](CC(C)C)C(=O)N[C@@H]([C@@H](C)CC)C(=O)N(C)[C@@H](C)C(=O)N3CC[C@H]3C(=O)N(C)[C@@H](Cc3ccc(C(F)(F)F)cc3)C(=O)N(C)CC(=O)N[C@@H](CCc3cc(F)c(C(F)(F)F)c(F)c3)C(=O)N2C1` [Compound 362] (cyclo([Ac5c][NMeI][NMedβ3hAla][NMeL]I[NMeA][Aze][NMePhe(4-CF3)][Sar][hPhe(3,5-F2-4-CF3)][Hyp](Et))): 0.66 nM and at most 20 nM.
For `CC[C@H](C)[C@@H]1NC(=O)[C@H](CC(C)C)N(C)C(=O)C[C@@H](C(=O)N(C)C)N(C)C(=O)[C@H](C2CCCC2)N(C)C(=O)C2(CCCC2)NC(=O)[C@@H]2CCCN2C(=O)[C@H](CCc2ccc(C(F)(F)F)c(Cl)c2)NC(=O)CN(CC)C(=O)[C@H](Cc2ccc(C)cc2)N(C)C(=O)[C@@H]2CCN2C(=O)[C@H](C)N(C)C1=O` [Compound 5] ([NMeL]I[NMeA][Aze][NMePhe(4-Me)][NEtG][hPhe(3-Cl-4-CF3)]P[Ac5c][NMeGly(cPent)][NMeD]-NMe2; lactam N-11) the same measures were 0.99 nM and at most 20 nM.
For `CCO[C@@H]1C[C@H]2C(=O)NC3(CCCC3)C(=O)N(C)[C@@H](C3CCCC3)C(=O)N(C)[C@H](C(=O)N3CCOCC3)CC(=O)N(C)[C@@H](CC(C)C)C(=O)N[C@@H]([C@@H](C)CC)C(=O)N(C)[C@@H](C)C(=O)N3CC[C@H]3C(=O)N(C)[C@@H](CC3CCCCC3)C(=O)N(C)CC(=O)N[C@@H](CCc3ccc(C(F)(F)F)c(Cl)c3)C(=O)N2C1` [Compound 1259] ([NMeL]I[NMeA][Aze][NMeCha][Sar][hPhe(3-Cl-4-CF3)][Hyp](Et)[Ac5c][NMeGly(cPent)][NMeD]-Morpholide; lactam N-11) the same measures were 0.49 nM and at most 20 nM.
In the case of `CC[C@H](C)[C@@H]1NC(=O)[C@H](CC(C)C)N(C)C(=O)C[C@@H](C(=O)N2CCCCC2)N(C)C(=O)[C@H](C2CCCC2)N(C)C(=O)C2(CCCC2)NC(=O)[C@@H]2CCCN2C(=O)[C@H](CCc2ccc(C(F)(F)F)c(Cl)c2)NC(=O)CN(C)C(=O)[C@H](Cc2ccc(C(F)(F)F)cc2)N(C)C(=O)[C@@H]2CCN2C(=O)[C@H](C)N(C)C1=O` [Compound 370] ([NMeL]I[NMeA][Aze][NMePhe(4-CF3)][Sar][hPhe(3-Cl-4-CF3)]P[Ac5c][NMeGly(cPent)][NMeD]-Piperidide; lactam N-11), the IC50 is 0.35 nM in assay [1] and at most 20 nM in assay [2].
For `CC[C@H](C)[C@@H]1NC(=O)[C@H](CC(C)C)N(C)C(=O)C[C@@H](C(=O)N(C)C)N(C)C(=O)[C@H]([C@@H](C)CC)N(C)C(=O)C2(CCCC2)NC(=O)[C@@H]2CCCN2C(=O)[C@H](CCc2cc(F)c(C(F)(F)F)c(F)c2)NC(=O)CN(C)C(=O)[C@H](Cc2ccc(C)cc2)N(C)C(=O)[C@@H]2CCN2C(=O)[C@H](C)N(C)C1=O` [Compound 1080] ([NMeL]I[NMeA][Aze][NMePhe(4-Me)][Sar][hPhe(3,5-F2-4-CF3)]P[Ac5c][NMeI][NMeD]-NMe2; lactam N-11) the same measures were 1 nM and at most 20 nM.
`CC[C@H](C)[C@@H]1NC(=O)[C@H](CC(C)C)N(C)C(=O)C[C@@H](C(=O)N2CCCCC2)N(C)C(=O)[C@H](C2CCCCC2)N(C)C(=O)C2(CCCC2)NC(=O)[C@@H]2CCCN2C(=O)[C@H](CCc2ccc(S(C)(=O)=O)cc2)NC(=O)CN(C)C(=O)[C@H](CC2CCCCC2)N(C)C(=O)CN(C)C(=O)CN(C)C1=O` [Compound 2058, (3S,9S,18S,21S,25S,28S,34S)-28-cyclohexyl-9-(cyclohexylmethyl)-21-isobutyl-7,10,13,16,22,26,29-heptamethyl-18-[(1S)-1-methylpropyl]-3-[2-(4-methylsulfonylphenyl)ethyl]-25-(piperidine-1-carbonyl)spiro[1,4,7,10,13,16,19,22,26,29,32-undecazabicyclo[32.3.0]heptatriacontane-31,1′-cyclopentane]-2,5,8,11,14,17,20,23,27,30,33-undecone] ([NMeL]I[Sar][Sar][NMeCha][Sar][X16]P[Ac5c][NMeChg][NMeD]-Piperidide; lactam N-11): the values for the IC50 in assay [1] and in assay [2] were 380 nM and above 500 nM, respectively.
In the case of `CC[C@H](C)[C@@H]1NC(=O)[C@H](C)N(C)C(=O)C[C@@H](C(=O)N2CCCCC2)N(C)C(=O)[C@H](C(C)C)N(C)C(=O)C2(CCCC2)NC(=O)[C@H](Cc2ccccc2Cl)N(C)C(=O)[C@H](CCc2ccc(C(F)(F)F)c(Cl)c2)NC(=O)CN(C)C(=O)[C@H](CC2CCCCC2)N(C)C(=O)CN(C)C(=O)CN(C)C1=O` [Compound 963] ([NMeA]I[Sar][Sar][NMeCha][Sar][hPhe(3-Cl-4-CF3)][NMePhe(2-Cl)][Ac5c][NMeV][NMeD]-Piperidide; lactam N-11), the IC50 in assay [1] is 13 nM; in assay [2], above 500 nM.
As to `CC[C@H](C)[C@@H]1NC(=O)[C@H](CC(C)C)N(C)C(=O)C[C@@H](C(=O)N(C)C)N(C)C(=O)[C@H]([C@@H](C)CC)N(C)C(=O)[C@H](C(C)C)NC(=O)[C@@H]2CCCN2C(=O)[C@H](CCc2ccc(C(F)(F)F)c(Cl)c2)NC(=O)CN(C)C(=O)[C@H](Cc2ccc(C)cc2)N(C)C(=O)[C@@H]2CCN2C(=O)[C@H](C)N(C)C1=O` [Compound 784] ([NMeL]I[NMeA][Aze][NMePhe(4-Me)][Sar][hPhe(3-Cl-4-CF3)]PV[NMeI][NMeD]-NMe2; lactam N-11), the figures for the IC50 in assay [1] and in assay [2] were 4 nM and above 500 nM, respectively.
The matching figures for `CC[C@H](C)[C@@H]1NC(=O)[C@H](CC(C)C)N(C)C(=O)C[C@@H](C(=O)N(C)C)N(C)C(=O)[C@H]([C@@H](C)CC)N(C)C(=O)C2(CCCC2)NC(=O)[C@@H]2CCCN2C(=O)[C@H](CCc2ccc(C(F)(F)F)c(Cl)c2)NC(=O)CN(C)C(=O)[C@H](Cc2ccc(C)cc2)N(C)C(=O)[C@@H]2CCN2C(=O)[C@H](C)N(C)C1=O` [Compound 1842] ([NMeL]I[NMeA][Aze][NMePhe(4-Me)][Sar][hPhe(3-Cl-4-CF3)]P[Ac5c][NMeI][NMeD]-NMe2; lactam N-11): 0.66 nM and at most 20 nM.
The matching figures for `CC[C@H](C)[C@@H]1NC(=O)[C@H](C)N(C)C(=O)C[C@@H](C)NC(=O)[C@H](C2CCCC2)N(C)C(=O)C2(CCCC2)NC(=O)[C@@H]2CCCN2C(=O)[C@H](CCc2ccc(C(F)(F)F)c(Cl)c2)NC(=O)CN(C)C(=O)[C@H](Cc2ccc(C)cc2)N(C)C(=O)[C@@H]2CCCN2C(=O)CN(C)C1=O` [Compound 151] (cyclo([Ac5c][NMeGly(cPent)][d(β3hA)][NMeA]I[Sar]P[NMePhe(4-Me)][Sar][hPhe(3-Cl-4-CF3)]P)): 5 nM and above 500 nM.
For `CCO[C@@H]1C[C@H]2C(=O)NC3(CCCC3)C(=O)N(C)[C@@H]([C@@H](C)CC)C(=O)N(C)[C@H](C)CC(=O)N(C)[C@@H](CC(C)C)C(=O)N[C@@H]([C@@H](C)CC)C(=O)N(C)[C@@H](C)C(=O)N3CC[C@H]3C(=O)N(CC)[C@@H](Cc3ccc(C(F)(F)F)cc3)C(=O)N(C)CC(=O)N[C@@H](CCc3cc(F)c(C(F)(F)F)c(F)c3)C(=O)N2C1` [Compound 374] (cyclo([Ac5c][NMeI][NMedβ3hAla][NMeL]I[NMeA][Aze][NEtPhe(4-CF3)][Sar][hPhe(3,5-F2-4-CF3)][Hyp](Et))) the same measures were 6.5 nM and at most 20 nM.
Consider `CC[C@H](C)[C@@H]1NC(=O)[C@H](CC2CCCC2)N(C)C(=O)C[C@@H](C(=O)N2CCCC2)N(C)C(=O)[C@H]([C@@H](C)CC)N(C)C(=O)C2(CCCC2)NC(=O)[C@@H]2CCCN2C(=O)[C@H](CCc2ccc(C(F)(F)F)c(Cl)c2)NC(=O)CN(C)C(=O)[C@H](Cc2ccc(C(F)(F)F)cc2)N(C)C(=O)[C@@H]2CCN2C(=O)[C@H](C)NC1=O` [Compound 1320] ([NMeAla(cPent)]IA[Aze][NMePhe(4-CF3)][Sar][hPhe(3-Cl-4-CF3)]P[Ac5c][NMeI][NMeD]-Pyrrolidide; lactam N-11), for which the IC50 in assay [1] was 1.4 nM; in assay [2], at most 20 nM.
For `CC[C@H](C)[C@@H]1NC(=O)[C@H](CC(C)C)N(C)C(=O)CSC[C@@H](C(=O)N(C)C)N(C)C(=O)[C@H](C2CCCC2)N(C)C(=O)C2(CCCC2)NC(=O)[C@@H]2CCCN2C(=O)[C@H](CCc2ccc(C(F)(F)F)c(Cl)c2)NC(=O)CN(C)C(=O)[C@H](CC2CCCCC2)N(C)C(=O)CN(C)C(=O)CN(C)C1=O` [Compound 2175] ({CH2CO}-[NMeL]I[Sar][Sar][NMeCha][Sar][hPhe(3-Cl-4-CF3)]P[Ac5c][NMeGly(cPent)][NMeC]-NMe2; thioether N-11) the same measures were 180 nM and above 500 nM.

For the origin of these results see patent US20240148821A1, “PHARMACEUTICAL USE OF CYCLIC PEPTIDE COMPOUND” (CHUGAI SEIYAKU KABUSHIKI KAISHA, priority 2021, published 2024).
